Measured values reported in patent US20250179059A1 (The Regents of the University of California, priority 2021, published 2025).
pIC50: −log10 of the molar value.

Biological target: T1, human BRD4 bromodomain II (Homo sapiens, UniProt O60885)
T1 construct: human BRD4 bromodomain II [based on Genbank NM_058243, residues 349-460]; host or cells: E. coli
Test: Bromodomain binding assay (AlphaScreen), BRD4 BDII
Settings: AlphaScreen assay, Table C2; read-out: BRD4 BDII IC50
How it was run: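 E. coli-expressed N-terminal His6-tagged human BRD4 BDII (residues 349-460) or BDI (residues 44-170) was preincubated 30 min at room temperature with compound (10-point, 3-fold) in pH 7.5 HEPES buffer, 1% DMSO. Displacement of biotinylated tetra-acetylated H4 1-21 peptide was read by AlphaScreen, and IC50 came from curve fitting.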

pIC50 | Compound
< 7.00 | CC(=O)Nc1ccc(-c2cccc(-c3ccc4c(ccn4C)c3)c2O)cc1F [Example 130, N-(3-Fluoro-2′-hydroxy-3′-(1-methyl-1H-indol-5-yl)-[1,1′-biphenyl]-4-yl)acetamide]
7.00 to 8.00 | CC(=O)Nc1ccc(-c2cccc(-c3ccc4[nH]cnc4c3)c2O)cc1F [Example 131, N-(3′-(1H-Benzo[d]imidazol-5-yl)-3-fluoro-2′-hydroxy-[1,1′-biphenyl]-4-yl)acetamide]
7.00 to 8.00 | COc1cc(-c2cccc(-c3cc(Cl)c(NC(C)=O)c(Cl)c3)c2O)ccc1NC(C)=O [Example 132, N,N′-(3,5-Dichloro-2′-hydroxy-3″-methoxy-[1,1′:3′,1″-terphenyl]-4,4″-diyl)diacetamide]
7.00 to 8.00 | COc1cc(-c2cccc(-c3cc(F)c(N4CCCC4=O)c(F)c3)c2O)ccc1NC(C)=O [Example 133, N-(3″,5″-Difluoro-2′-hydroxy-3-methoxy-4″-(2-oxopyrrolidin-1-yl)-[1,1′:3′,1″-terphenyl]-4-yl)acetamide]
< 7.00 | CC(=O)Nc1ccc(-c2cc(F)cc(-c3cnn(C4CCN(C)CC4)c3)c2O)cc1 [Example 134, N-(5′-fluoro-2′-hydroxy-3′-(1-(1-methylpiperidin-4-yl)-1H-pyrazol-4-yl)-[1,1′-biphenyl]-4-yl)acetamide]
< 7.00 | CC(=O)Nc1ccc(-c2cccc(-c3ccc4c(c3)CCCO4)c2O)cc1F [Example 136, N-(3′-(chroman-6-yl)-3-fluoro-2′-hydroxy-[1,1′-biphenyl]-4-yl)acetamide]
< 7.00 | CC(=O)Nc1ccc(-c2cccc(-c3ccc4c(c3)CCN4)c2O)cc1F [Example 137, N-(3-fluoro-2′-hydroxy-3′-(indolin-5-yl)-[1,1′-biphenyl]-4-yl)acetamide]
< 7.00 | CC(=O)Nc1ccc(-c2cccc(-c3ccc(NC(C)=O)c(C(F)(F)F)c3)c2O)cc1F [Example 138, N,N′-(3-fluoro-2′-hydroxy-3″-(trifluoromethyl)-[1,1′:3′,1″-terphenyl]-4,4″-diyl)diacetamide]
< 7.00 | CC(=O)Nc1ccc(-c2cccc(-c3cc(C)c(NC(C)=O)c(F)c3)c2O)cc1F [Example 139, N,N′-(3,3″-difluoro-2′-hydroxy-5-methyl-[1,1′:3′,1″-terphenyl]-4,4″-diyl)diacetamide]
7.00 to 8.00 | O=C1CCCN1c1c(F)cc(-c2cccc(-c3cc(N4CCNCC4)no3)c2O)cc1F [Example 140, 1-(3,5-difluoro-2′-hydroxy-3′-(3-(piperazin-1-yl)isoxazol-5-yl)-[1,1′-biphenyl]-4-yl)pyrrolidin-2-one]
< 7.00 | COC(=O)Nc1ccc(-c2cccc(-c3cc(N4CCNCC4)no3)c2O)cc1 [Example 141, Methyl (2′-hydroxy-3′-(3-(piperazin-1-yl)isoxazol-5-yl)-[1,1′-biphenyl]-4-yl)carbamate 2,2,2-trifluoroacetate]
7.00 to 8.00 | CC(=O)Nc1ccc(-c2cccc(-c3ccc4ncncc4c3)c2O)cc1F [Example 142, N-(3-fluoro-2′-hydroxy-3′-(quinazolin-6-yl)-[1,1′-biphenyl]-4-yl)acetamide]
< 7.00 | CC(=O)Nc1ccc(-c2cccc(-c3cc(N4CCN(S(C)(=O)=O)CC4)no3)c2O)cc1 [Example 143, N-(2′-hydroxy-3′-(3-(4-(methylsulfonyl)piperazin-1-yl)isoxazol-5-yl)-[1,1′-biphenyl]-4-yl)acetamide]
< 7.00 | CC(=O)Nc1ccc(-c2cccc(-c3ccc4c(c3)OCCN4C)c2O)cc1F [Example 144, N-(3-fluoro-2′-hydroxy-3′-(4-methyl-3,4-dihydro-2H-benzo[b][1,4]oxazin-7-yl)-[1,1′-biphenyl]-4-yl)acetamide]
7.00 to 8.00 | CC(=O)Nc1ccc(-c2cccc(-c3ccc4cnccc4c3)c2O)cc1F [Example 145, N-(3-fluoro-2′-hydroxy-3′-(isoquinolin-6-yl)-[1,1′-biphenyl]-4-yl)acetamide]
< 7.00 | COc1cc(F)cc(-c2cccc(-c3ccc(NC(C)=O)c(F)c3)c2O)c1 [Example 146, N-(3,3″-difluoro-2′-hydroxy-5″-methoxy-[1,1′:3′,1″-terphenyl]-4-yl)acetamide]
< 7.00 | COc1ccc(C)c(-c2cccc(-c3ccc(NC(C)=O)c(F)c3)c2O)c1 [Example 147, N-(3-fluoro-2′-hydroxy-5″-methoxy-2″-methyl-[1,1′:3′,1″-terphenyl]-4-yl)acetamide]
< 7.00 | CC(=O)Nc1ccc(-c2cccc(-c3nnc(N4CCNCC4)[nH]3)c2O)cc1F [Example 148, N-(3-fluoro-2′-hydroxy-3′-(5-(piperazin-1-yl)-4H-1,2,4-triazol-3-yl)-[1,1′-biphenyl]-4-yl)acetamide]

pIC50 | Compound
< 7.00 | CNC(=O)Nc1ccc(-c2cccc(-c3cc(N4CCNCC4)no3)c2O)cc1 [Example 149, 1-(2′-hydroxy-3′-(3-(piperazin-1-yl)isoxazol-5-yl)-[1,1′-biphenyl]-4-yl)-3-methylurea]
7.00 to 8.00 | CC(=O)Nc1ccc(-c2cccc(-c3cc(N4CCN(C)CC4)no3)c2O)cc1F [Example 150, N-(3-fluoro-2′-hydroxy-3′-(3-(4-methylpiperazin-1-yl)isoxazol-5-yl)-[1,1′-biphenyl]-4-yl)acetamide]
7.00 to 8.00 | CCN1CCN(c2cc(-c3cccc(-c4ccc(NC(C)=O)c(F)c4)c3O)on2)CC1 [Example 151, N-(3′-(3-(4-ethylpiperazin-1-yl)isoxazol-5-yl)-3-fluoro-2′-hydroxy-[1,1′-biphenyl]-4-yl)acetamide]
7.00 to 8.00 | CC(=O)Nc1ccc(-c2cccc(-c3cc(N4CCN(C(C)C)CC4)no3)c2O)cc1F [Example 152, N-(3-fluoro-2′-hydroxy-3′-(3-(4-isopropylpiperazin-1-yl)isoxazol-5-yl)-[1,1′-biphenyl]-4-yl)acetamide 2,2,2-trifluoroacetate]
7.00 to 8.00 | CC(=O)Nc1ccc(-c2cccc(-c3cc(N4CCN(C5COC5)CC4)no3)c2O)cc1F [Example 153, N-(3-fluoro-2′-hydroxy-3′-(3-(4-(oxetan-3-yl)piperazin-1-yl)isoxazol-5-yl)-[1,1′-biphenyl]-4-yl)acetamide]
7.00 to 8.00 | CC(=O)Nc1c(Cl)cc(-c2cccc(-c3cc(N4CCNCC4)no3)c2O)cc1Cl [Example 154, N-(3,5-dichloro-2′-hydroxy-3′-(3-(piperazin-1-yl)isoxazol-5-yl)-[1,1′-biphenyl]-4-yl)acetamide]
7.00 to 8.00 | CC(=O)Nc1ccc(-c2cccc(-c3ccc4c(c3)CNC(=O)N4)c2O)cc1F [Example 155, N-(3-fluoro-2′-hydroxy-3′-(2-oxo-1,2,3,4-tetrahydroquinazolin-6-yl)-[1,1′-biphenyl]-4-yl)acetamide]
< 7.00 | CC(=O)Nc1ccc(-c2cccc(-c3cc4ccccc4[nH]3)c2O)cc1F [Example 156, N-(3-fluoro-2′-hydroxy-3′-(1H-indol-2-yl)-[1,1′-biphenyl]-4-yl)acetamide]
< 7.00 | COc1cc(-c2cccc(-c3ccc(NC(C)=O)c(F)c3)c2O)ccc1F [Example 157, N-(3,4″-difluoro-2′-hydroxy-3″-methoxy-[1,1′:3′,1″-terphenyl]-4-yl)acetamide]
< 7.00 | COc1ccc(F)c(-c2cccc(-c3ccc(NC(C)=O)c(F)c3)c2O)c1 [Example 158, N-(2″,3-difluoro-2′-hydroxy-5″-methoxy-[1,1′:3′,1″-terphenyl]-4-yl)acetamide]
7.00 to 8.00 | CC(=O)Nc1ccc(-c2cccc(-c3cccc(N4CCC(N)CC4)c3)c2O)cc1F [Example 159, N-(3″-(4-aminopiperidin-1-yl)-3-fluoro-2′-hydroxy-[1,1′:3′,1″-terphenyl]-4-yl)acetamide 2,2,2-trifluoroacetate]
< 7.00 | CC(=O)Nc1ccc(-c2cccc(-c3cc(N4CCNCC4)n(C)n3)c2O)cc1F [Example 160, N-(3-fluoro-2′-hydroxy-3′-(1-methyl-5-(piperazin-1-yl)-1H-pyrazol-3-yl)-[1,1′-biphenyl]-4-yl)acetamide]
< 7.00 | CC(=O)Nc1ccc(-c2cccc(-c3cc(N4CCNCC4)[nH]n3)c2O)cc1F [Example 162, N-(3-fluoro-2′-hydroxy-3′-(5-(piperazin-1-yl)-1H-pyrazol-3-yl)-[1,1′-biphenyl]-4-yl)acetamide ditrifluoroacetate]
< 7.00 | COc1cc(-c2cccc(-c3cc(Cl)c(N4CCCC4=O)c(Cl)c3)c2O)ccc1NC(C)=O [Example 165, N-(3″,5″-dichloro-2′-hydroxy-3-methoxy-4″-(2-oxopyrrolidin-1-yl)-[1,1′:3′,1″-terphenyl]-4-yl)acetamide]
< 7.00 | CC(=O)Nc1ccc(-c2cccc(-c3cccc(N4CCCCC4)c3)c2O)cc1F [Example 166, N-(3-fluoro-2′-hydroxy-3″-(piperidin-1-yl)-[1,1′:3′,1″-terphenyl]-4-yl)acetamide]
7.00 to 8.00 | CC(=O)Nc1ccc(-c2cccc(-c3cccc(N4CCNC[C@@H]4C)c3)c2O)cc1F [Example 168, (S)-N-(3-fluoro-2′-hydroxy-3″-(2-methylpiperazin-1-yl)-[1,1′:3′,1″-terphenyl]-4-yl)acetamide]
8.00 to 9.00 | CC(=O)Nc1ccc(-c2cccc(-c3cccc(N4CCNC[C@H]4C)c3)c2O)cc1F [Example 169, (R)-N-(3-fluoro-2′-hydroxy-3″-(2-methylpiperazin-1-yl)-[1,1′:3′,1″-terphenyl]-4-yl)acetamide]
7.00 to 8.00 | CC(=O)Nc1ccc(-c2cccc(-c3cccc(N4CC5CC4CN5)c3)c2O)cc1F (stereo not shown) [Example 170, N-(3″-(2,5-diazabicyclo[2.2.1]heptan-2-yl)-3-fluoro-2′-hydroxy-[1,1:3′,1″-terphenyl]-4-yl)acetamide]

Compound | pIC50
CC(=O)Nc1c(F)cc(-c2cccc(-c3cccc(N4CCNCC4)c3)c2O)cc1OC1CCC1 [Example 167, N-(3-cyclobutoxy-5-fluoro-2′-hydroxy-3″-(piperazin-1-yl)-[1,1′:3′,1″-terphenyl]-4-yl)acetamide] | 8.00 to 9.00
